Results taken from patent US20200172549A1, “NOVEL CHLORIN E6-CURCUMIN DERIVATIVES, PREPARATION METHOD THEREOF, AND PHARMACEUTICAL COMPOSITION CONTAINING THE SAME FOR TREATMENT OF CANCER” (DONG SUNG PHARM. CO., LTD., priority 2017, published 2020).

Experiments:
[1] = Dark cytotoxicity, MTT assay, AsPC-1; assay type: cell-based; conditions: human, AsPC-1 pancreatic cancer cells, 3 h, no light, 72 h incubation, read-out: Cell viability, Dark Cytotoxicity against AsPC-1; for viability at 3.12 μM: 3.12 μM photosensitizer; for viability at 6.25 μM: 6.25 μM photosensitizer; for viability at 12.5 μM: 12.5 μM photosensitizer; for viability at 25 μM: 25 μM photosensitizer; for viability at 50 μM: 50 μM photosensitizer
Procedure: (§1) Dark cytotoxicity: The culture of AsPC-1 pancreatic cancer cells were grown in RPMI-1640 medium (life technologies corporation, USA) supplemented with 10% heat-inactivated fetal bovine serum (life technologies corporation, USA) and 1 penicillin (life technologies corporation, USA), whereas MIA-paca2 and PANC-1 cells were grown in DMEM. The MTT assay was used to assess the cell viability of AsPC-1, MIA-paca2, PANC-1 cells. The cells attached to a 96-well plate (5,000 cells/well) were treated with 3.125 μM, 6.25 μM, 12.5 μM, 25 μM, 50 μM of photosensitizers, 7, 10, 13, 16, and 3 for 3 h. The cells were then incubated for 72 h at 37° C. in a 5% CO2 incubator and exposed to MTT [3-(4,5-dimethylthiazol-2-yl)-2,5-diphenyl-tetrazolium bromide] (250 μg/ml) for 3 h. The solution was changed to 200 μl of dimethylsulfoxide (DMSO, Sigma). After 30 min incubation and shaking in microplate mixer, the optical density (OD) was measured using a microplate reader (Thermo Fisher scientific, USA) at 570 nm wavelength. The cell viability was calculated using the following formula: Cell viability (%)=Mean optical density of treated wells/Mean optical density of control wells×100.

[2] = Dark cytotoxicity, MTT assay, MIA-PaCa-2; assay type: cell-based; conditions: human, MIA-PaCa-2 cells, 3 h, no light, 72 h incubation, read-out: Cell viability, Dark cytotoxicity against MIA-PaCa-2; for viability at 3.12 μM: 3.12 μM photosensitizer; for viability at 6.25 μM: 6.25 μM photosensitizer; for viability at 12.5 μM: 12.5 μM photosensitizer; for viability at 25 μM: 25 μM photosensitizer; for viability at 50 μM: 50 μM photosensitizer
Procedure: as §1

[3] = tested on: AsPC-1 pancreatic cancer cells; test: Phototoxicity (PDT), MTT assay, AsPC-1; assay type: cell-based; conditions: for Cell viability, Phototoxicity against AsPC-1: 3 h, 50 mW 0.09 J/cm^2 laser 100 sec, 72 h incubation
Procedure: as §1, with “Phototoxicity: The culture” for “Dark cytotoxicity: The culture”, “USA) and 1% penicillin (life” for “USA) and 1 penicillin (life”, “3 h. The photosensitized cells were then irradiated with a 50 mW, 0.09 J/cm^2 laser for 100 sec. The cells” for “3 h. The cells”

[4] = tested on: PANC-1; test: Phototoxicity (PDT), MTT assay, PANC-1; assay type: cell-based; conditions: for Cell viability, Phototoxicity against PANC-1: 3 h, 50 mW 0.09 J/cm^2 laser 100 sec, 72 h incubation
Procedure: as §1, with “Phototoxicity: The culture” for “Dark cytotoxicity: The culture”, “USA) and 1% penicillin (life” for “USA) and 1 penicillin (life”, “3 h. The photosensitized cells were then irradiated with a 50 mW, 0.09 J/cm^2 laser for 100 sec. The cells” for “3 h. The cells”

[5] = tested on: MIA-PaCa-2; test: Phototoxicity (PDT), MTT assay, MIA-PaCa-2; assay type: cell-based; conditions: for Cell viability, Phototoxicity against MIA-PaCa-2: 3 h, 50 mW 0.09 J/cm^2 laser 100 sec, 72 h incubation
Procedure: as §1, with “Phototoxicity: The culture” for “Dark cytotoxicity: The culture”, “USA) and 1% penicillin (life” for “USA) and 1 penicillin (life”, “3 h. The photosensitized cells were then irradiated with a 50 mW, 0.09 J/cm^2 laser for 100 sec. The cells” for “3 h. The cells”

[6] = Photophysical properties (absorption) in DMSO; assay type: physicochemical
Procedure: The photophysical properties of Ce6-curcumin conjugates and dimethyl ester ce6 were analyzed in dimethyl sulfoxide (DMSO). All the photosensitizers 7, 10, 13, and 16 (Formula IV) effectively absorbed the red light compared to dimethyl ester ce6. The major soret peak at λmax=405-408 nm and Q-bands at 667 nm for the photosensitizers 7, 10, 13, and 16 (Formula IV) and Q band peak at 656 for dimethyl ester ce6.

Compound	viability at 3.12 μM [1]	viability at 6.25 μM [1]	viability at 12.5 μM [1]	viability at 25 μM [1]	viability at 50 μM [1]	viability at 3.12 μM [2]	viability at 6.25 μM [2]	viability at 12.5 μM [2]	viability at 25 μM [2]	viability at 50 μM [2]	Cell viability, Phototoxicity against AsPC-1 ([3]; 3.12 μM photosensitizer)	Cell viability, Phototoxicity against AsPC-1 ([3]; 6.25 μM photosensitizer)	Cell viability, Phototoxicity against AsPC-1 ([3]; 12.5 μM photosensitizer)	Cell viability, Phototoxicity against AsPC-1 ([3]; 25 μM photosensitizer)	Cell viability, Phototoxicity against AsPC-1 ([3]; 50 μM photosensitizer)	Cell viability, Phototoxicity against PANC-1 ([4]; 3.12 μM photosensitizer)	Cell viability, Phototoxicity against PANC-1 ([4]; 6.25 μM photosensitizer)	Cell viability, Phototoxicity against PANC-1 ([4]; 12.5 μM photosensitizer)	Cell viability, Phototoxicity against PANC-1 ([4]; 25 μM photosensitizer)	Cell viability, Phototoxicity against PANC-1 ([4]; 50 μM photosensitizer)	further results
C=Cc1c(C)c2cc3nc(c(CC(=O)O)c4[nH]c(cc5nc(cc1[nH]2)C(C)=C5CC)c(C)c4C(=O)O)[C@@H](CCC(=O)O)[C@@H]3C [Compound 3, Chlorin e6]	98.8%	101%	100%	99.6%	100%	98.8%	101%	100%	99.6%	100%	91.05%	76.65%	66.31%	37.32%	17.52%	104.37%	82.85%	30.03%	8.57%	7.61%	inhibition at 25 µM ([3]; Homo sapiens, ASPC1, 25 μM concentration, with light): 63%; inhibition at 25 µM ([4]; Homo sapiens, PANC-1, 25 μM concentration, with light): 91%
C=Cc1c(C)c2cc3nc(c(CC(=O)OC)c4[nH]c(cc5nc(cc1[nH]2)C(C)=C5CC)c(C)c4C(=O)NCCCCCCNC(=O)CCCC(=O)Oc1ccc(/C=C/C(=O)CC(=O)/C=C/c2ccc(O)c(OC)c2)cc1OC)C(CCC(=O)OC)C3C (stereo not drawn) [Compound 10, Chlorine e6-curcumin Conjugate (10)]	96.5%	98.2%	98.5%	95%	78.8%	89.7%	82%	75.1%	66.4%	48.7%	85.90%	75.12%	34.05%	26.11%	23.17%	99.74%	96.76%	81.89%	81.07%	73.00%	Cell viability, Phototoxicity against MIA-PaCa-2 ([5]; 3.12 μM photosensitizer): 94.15%; Cell viability, Phototoxicity against MIA-PaCa-2 ([5]; 6.25 μM photosensitizer): 90.03%; Cell viability, Phototoxicity against MIA-PaCa-2 ([5]; 12.5 μM photosensitizer): 85.20%; Cell viability, Phototoxicity against MIA-PaCa-2 ([5]; 25 μM photosensitizer): 64.88%; Cell viability, Phototoxicity against MIA-PaCa-2 ([5]; 50 μM photosensitizer): 48.21%; Q-band peak [6]: 667 nm
C=Cc1c(C)c2cc3nc(c(CC(=O)OC)c4[nH]c(cc5nc(cc1[nH]2)C(C)=C5CC)c(C)c4C(=O)NCCOCCOCCNC(=O)CCCC(=O)Oc1ccc(/C=C/C(=O)CC(=O)/C=C/c2ccc(O)c(OC)c2)cc1OC)C(CCC(=O)OC)C3C (stereo not drawn) [Compound 13, Chlorine e6-curcumin Conjugate (13)]	105%	108%	106%	98.5%	78.7%	114%	115%	114%	96.3%	66.8%	7.34%	6.61%	6.48%	6.58%	6.58%	8.51%	7.71%	7.53%	8.04%	7.28%	inhibition at 3 µM ([3]; Homo sapiens, ASPC1, 3 μM concentration, with light): > 90%; Cell viability, Phototoxicity against MIA-PaCa-2 ([5]; 3.12 μM photosensitizer): 4.68%; Cell viability, Phototoxicity against MIA-PaCa-2 ([5]; 6.25 μM photosensitizer): 5.07%; Cell viability, Phototoxicity against MIA-PaCa-2 ([5]; 12.5 μM photosensitizer): 4.93%; Cell viability, Phototoxicity against MIA-PaCa-2 ([5]; 25 μM photosensitizer): 5.39%; Cell viability, Phototoxicity against MIA-PaCa-2 ([5]; 50 μM photosensitizer): 5.90%; inhibition at 3 µM ([5]; Homo sapiens, MIA PaCa-2, 3 μM concentration, with light): > 90%; inhibition at 3 µM ([4]; Homo sapiens, PANC-1, 3 μM concentration, with light): > 90%; Q-band peak [6]: 667 nm
Dimethylester of Chlorine e6 [dimethyl ester ce6]	–	–	–	–	–	–	–	–	–	–	–	–	–	–	–	–	–	–	–	–	Q-band peak [6]: 656 nm
